Source: patent US9296757B2, “Substituted benzothienopyrimidines” (BAYER PHARMA AKTIENGESELLSCHAFT, priority 2012, dated 2016)

Molecular target: human full-length MKNK1 (Homo sapiens (Human), UniProt Q9BUB5, T344D)
Assay: MKNK1 kinase high ATP assay (TR-FRET)
Type: biochemical
Conditions: high ATP (2 mM final), 15 min preincubation with enzyme
Protocol: MKNK1-inhibitory activity at high ATP of compounds of the present invention after their preincubation with MKNK1 was quantified employing the TR-FRET-based MKNK1 high ATP assay as described in the following paragraphs.
A recombinant fusion protein of Glutathione-S-Transferase (GST, N-terminally) and human full-length MKNK1 (amino acids 1-424 and T344D of accession number BAA 19885.1), expressed in insect cells using baculovirus expression system and purified via glutathione sepharose affinity chromatography, was purchased from Carna Biosciences (product no 02-145) and used as enzyme. As substrate for the kinase reaction the biotinylated peptide biotin-Ahx-IKKRKLTRRKSLKG (C-terminus in amide form) was used, which can be purchased e.g. from the company Biosyntan (Berlin-Buch, Germany).
For the assay 50 nL of a 100 fold concentrated solution of the test compound in DMSO was pipetted into a black low volume 384 well microtiter plate (Greiner Bio-One, Frickenhausen, Germany), 2 μL of a solution of MKNK1 in aqueous assay buffer [50 mM HEPES pH 7.5, 5 mM MgCl2, 1.0 mM dithiothreitol, 0.005% (v/v) Nonidet-P40 (Sigma)] was added and the mixture was incubated for 15 min at 22° C. to allow pre-binding of the test compounds to the enzyme before the start of the kinase reaction. Then the kinase reaction was started by the addition of 3 μL of a solution of adenosine-tri-phosphate (ATP, 3.3 mM=>final conc. in the 5 μL assay volume is 2 mM) and substrate (0.1 μM=>final conc. in the 5 μL assay volume is 0.06 μM) in assay buffer and the resulting mixture was incubated for a reaction time of 30 min at 22° C. The concentration of MKNK1 was adjusted depending of the activity of the enzyme lot and was chosen appropriate to have the assay in the linear range, typical concentrations were in the range of 0.003 μg/mL. The reaction was stopped by the addition of 5 μL of a solution of TR-FRET detection reagents (5 nM streptavidine-XL665 [Cisbio Bioassays, Codolet, France] and 1 nM anti-ribosomal protein S6 (pSer236)-antibody from Invitrogen [#44921G] and 1 nM LANCE EU-W1024 labeled ProteinG [Perkin-Elmer, product no. AD0071]) in an aqueous EDTA-solution (100 mM EDTA, 0.1% (w/v) bovine serum albumin in 50 mM HEPES pH 7.5).
The resulting mixture was incubated for 1 h at 22° C. to allow the formation of complex between the phosphorylated biotinylated peptide and the detection reagents. Subsequently the amount of phosphorylated substrate was evaluated by measurement of the resonance energy transfer from the Eu-chelate to the streptavidine-XL. Therefore, the fluorescence emissions at 620 nm and 665 nm after excitation at 350 nm were measured in a TR-FRET reader, e.g. a Rubystar (BMG Labtechnologies, Offenburg, Germany) or a Viewlux (Perkin-Elmer). The ratio of the emissions at 665 nm and at […] was taken as the measure for the amount of phosphorylated substrate. The data were normalised (enzyme reaction without inhibitor=0% inhibition, all other assay components but no enzyme=100% inhibition).

Chain of human full-length MKNK1 (Q9BUB5 other isoform, or with tags, fused parts or gaps T344D): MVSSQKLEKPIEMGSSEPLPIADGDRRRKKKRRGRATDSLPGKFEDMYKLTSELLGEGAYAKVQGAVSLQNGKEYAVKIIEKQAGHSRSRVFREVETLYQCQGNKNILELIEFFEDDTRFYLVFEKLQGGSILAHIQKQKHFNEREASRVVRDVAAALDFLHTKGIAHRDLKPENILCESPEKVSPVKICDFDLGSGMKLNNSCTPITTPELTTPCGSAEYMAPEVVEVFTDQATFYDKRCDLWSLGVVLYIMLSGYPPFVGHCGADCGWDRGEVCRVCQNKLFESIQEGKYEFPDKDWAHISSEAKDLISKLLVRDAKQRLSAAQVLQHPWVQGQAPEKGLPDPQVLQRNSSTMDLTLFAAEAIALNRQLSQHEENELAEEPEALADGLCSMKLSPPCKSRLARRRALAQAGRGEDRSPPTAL

Compound | IC50
CCCCN(C)C(=O)C1CCc2c(sc3ncnc(Nc4ccc5[nH]c(=O)sc5c4)c23)C1 (racemic) [Example 41, (RS)-N-butyl-N-methyl-4-[(2-oxo-2,3-dihydro-1,3-benzothiazol-6-yl)amino]-5,6,7,8-tetrahydro[1]benzothieno[2,3-d]pyrimidine-7-carboxamide] | 0.021 µM
O=C(CN1CCN(C(=O)C2CCc3c(sc4ncnc(Nc5ccc6[nH]c(=O)sc6c5)c34)C2)CC1)N1CCCC1 (racemic) [Example 43, (RS)-6-{[7-({4-[2-oxo-2-(pyrrolidin-1-yl)ethyl]piperazin-1-yl}carbonyl)-5,6,7,8-tetrahydro[1]benzothieno[2,3-d]pyrimidin-4-yl]amino}-1,3-benzothiazol-2(3H)-one] | 0.069 µM
O=C(C1CCc2c(sc3ncnc(Nc4ccc5[nH]c(=O)sc5c4)c23)C1)N1CCCC1CO (racemic) [Example 46, 6-{[(7RS)-7-{[(2RS)-2-(hydroxymethyl)pyrrolidin-1-yl]carbonyl}-5,6,7,8-tetrahydro[1]benzothieno[2,3-d]pyrimidin-4-yl]amino}-1,3-benzothiazol-2(3H)-one] | 0.035 µM
CN(CC#N)C(=O)C1CCc2c(sc3ncnc(Nc4ccc5[nH]c(=O)sc5c4)c23)C1 (racemic) [Example 49, (RS)-N-(cyanomethyl)-N-methyl-4-[(2-oxo-2,3-dihydro-1,3-benzothiazol-6-yl)amino]-5,6,7,8-tetrahydro[1]benzothieno[2,3-d]pyrimidine-7-carboxamide] | 0.045 µM
CC(C)N(CCO)C(=O)C1CCc2c(sc3ncnc(Nc4ccc5[nH]c(=O)sc5c4)c23)C1 (racemic) [Example 54, (RS)-N-(2-hydroxyethyl)-N-isopropyl-4-[(2-oxo-2,3-dihydro-1,3-benzothiazol-6-yl)amino]-5,6,7,8-tetrahydro[1]benzothieno[2,3-d]pyrimidine-7-carboxamide] | 0.028 µM
O=C(C1CCc2c(sc3ncnc(Nc4ccc5[nH]c(=O)sc5c4)c23)C1)N1Cc2ccccc2C1 (racemic) [Example 55, (RS)-6-{[7-(1,3-dihydro-2H-isoindol-2-ylcarbonyl)-5,6,7,8-tetrahydro[1]benzothieno[2,3-d]pyrimidin-4-yl]amino}-1,3-benzothiazol-2(3H)-one] | 0.072 µM
CN(CC1CCCO1)C(=O)C1CCc2c(sc3ncnc(Nc4ccc5[nH]c(=O)sc5c4)c23)C1 (racemic) [Example 56, (7RS)-N-methyl-4-[(2-oxo-2,3-dihydro-1,3-benzothiazol-6-yl)amino]-N-[(2RS)-tetrahydrofuran-2-ylmethyl]-5,6,7,8-tetrahydro[1]benzothieno[2,3-d]pyrimidine-7-carboxamide] | 0.027 µM
CC(C)CN(C)C(=O)C1CCc2c(sc3ncnc(Nc4ccc5[nH]c(=O)sc5c4)c23)C1 (racemic) [Example 58, (RS)-N-isobutyl-N-methyl-4-[(2-oxo-2,3-dihydro-1,3-benzothiazol-6-yl)amino]-5,6,7,8-tetrahydro[1]benzothieno[2,3-d]pyrimidine-7-carboxamide] | 0.063 µM
CCN(C)C(=O)C1CCc2c(sc3ncnc(Nc4ccc5[nH]c(=O)sc5c4)c23)C1 (racemic) [Example 59, (RS)-N-ethyl-N-methyl-4-[(2-oxo-2,3-dihydro-1,3-benzothiazol-6-yl)amino]-5,6,7,8-tetrahydro[1]benzothieno[2,3-d]pyrimidine-7-carboxamide] | 0.04 µM

More lines, in order of falling IC50, values ahead:

IC50 | Compound
0.075 µM | O=C(C1CCc2c(sc3ncnc(Nc4ccc5[nH]c(=O)sc5c4)c23)C1)N1CCC(O)C1 (racemic) [Example 51, 6-{[(7RS)-7-{[(3RS)-3-hydroxypyrrolidin-1-yl]carbonyl}-5,6,7,8-tetrahydro[1]benzothieno[2,3-d]pyrimidin-4-yl]amino}-1,3-benzothiazol-2(3H)-one]
0.07 µM | O=C(C1CCc2c(sc3ncnc(Nc4ccc5[nH]c(=O)sc5c4)c23)C1)N1CCC1 (racemic) [Example 45, (RS)-6-{[7-(azetidin-1-ylcarbonyl)-5,6,7,8-tetrahydro[1]benzothieno[2,3-d]pyrimidin-4-yl]amino}-1,3-benzothiazol-2(3H)-one]
0.067 µM | O=C(C1CCc2c(sc3ncnc(Nc4ccc5[nH]c(=O)sc5c4)c23)C1)N1CCN(Cc2ccc3c(c2)OCO3)CC1 (racemic) [Example 44, (RS)-6-[(7-{[4-(1,3-benzodioxol-5-ylmethyl)piperazin-1-yl]carbonyl}-5,6,7,8-tetrahydro[1]benzothieno[2,3-d]pyrimidin-4-yl)amino]-1,3-benzothiazol-2(3H)-one]
0.065 µM | O=C(C1CCc2c(sc3ncnc(Nc4ccc5[nH]c(=O)sc5c4)c23)C1)N1CCN(c2ccccn2)CC1 (racemic) [Example 40, (RS)-6-[(7-{[4-(pyridin-2-yl)piperazin-1-yl]carbonyl}-5,6,7,8-tetrahydro[1]benzothieno[2,3-d]pyrimidin-4-yl)amino]-1,3-benzothiazol-2(3H)-one]
0.065 µM | CN(CCC#N)C(=O)C1CCc2c(sc3ncnc(Nc4ccc5[nH]c(=O)sc5c4)c23)C1 (racemic) [Example 48, (RS)-N-(2-cyanoethyl)-N-methyl-4-[(2-oxo-2,3-dihydro-1,3-benzothiazol-6-yl)amino]-5,6,7,8-tetrahydro[1]benzothieno[2,3-d]pyrimidine-7-carboxamide]
0.052 µM | O=C(C1CCc2c(sc3ncnc(Nc4ccc5[nH]c(=O)sc5c4)c23)C1)N1CCCC(O)C1 (racemic) [Example 53, 6-{[(7RS)-7-{[(3RS)-3-hydroxypiperidin-1-yl]carbonyl}-5,6,7,8-tetrahydro[1]benzothieno[2,3-d]pyrimidin-4-yl]amino}-1,3-benzothiazol-2(3H)-one]
0.047 µM | COc1ccc(N(C)C(=O)C2CCc3c(sc4ncnc(Nc5ccc6[nH]c(=O)sc6c5)c34)C2)cc1 (racemic) [Example 42, (RS)-N-(4-methoxyphenyl)-N-methyl-4-[(2-oxo-2,3-dihydro-1,3-benzothiazol-6-yl)amino]-5,6,7,8-tetrahydro[1]benzothieno[2,3-d]pyrimidine-7-carboxamide]
0.047 µM | CC(=O)N1CCN(C(=O)C2CCc3c(sc4ncnc(Nc5ccc6[nH]c(=O)sc6c5)c34)C2)CC1 (racemic) [Example 47, (RS)-6-({7-[(4-acetylpiperazin-1-yl)carbonyl]-5,6,7,8-tetrahydro[1]benzothieno[2,3-d]pyrimidin-4-yl}amino)-1,3-benzothiazol-2(3H)-one]
0.043 µM | CC1CCN(C(=O)C2CCc3c(sc4ncnc(Nc5ccc6[nH]c(=O)sc6c5)c34)C2)CC1 (racemic) [Example 50, (RS)-6-({7-[(4-methylpiperidin-1-yl)carbonyl]-5,6,7,8-tetrahydro[1]benzothieno[2,3-d]pyrimidin-4-yl}amino)-1,3-benzothiazol-2(3H)-one]
0.039 µM | O=C(C1CCc2c(sc3ncnc(Nc4ccc5[nH]c(=O)sc5c4)c23)C1)N1CCN(CCCO)CC1 (racemic) [Example 57, (RS)-6-[(7-{[4-(3-hydroxypropyl)piperazin-1-yl]carbonyl}-5,6,7,8-tetrahydro[1]benzothieno[2,3-d]pyrimidin-4-yl)amino]-1,3-benzothiazol-2(3H)-one]
0.03 µM | COCCN(CCOC)C(=O)C1CCc2c(sc3ncnc(Nc4ccc5[nH]c(=O)sc5c4)c23)C1 (racemic) [Example 52, (RS)-N,N-bis(2-methoxyethyl)-4-[(2-oxo-2,3-dihydro-1,3-benzothiazol-6-yl)amino]-5,6,7,8-tetrahydro[1]benzothieno[2,3-d]pyrimidine-7-carboxamide]
0.022 µM | CN1CCN(C(=O)C2CCc3c(sc4ncnc(Nc5ccc6[nH]c(=O)sc6c5)c34)C2)CC1 (racemic) [Example 37, (RS)-6-({7-[(4-methylpiperazin-1-yl)carbonyl]-5,6,7,8-tetrahydro[1]benzothieno[2,3-d]pyrimidin-4-yl}amino)-1,3-benzothiazol-2(3H)-one]
0.009 µM | CN(C)CCN(Cc1ccccc1)C(=O)C1CCc2c(sc3ncnc(Nc4ccc5[nH]c(=O)sc5c4)c23)C1 (racemic) [Example 36, (RS)-N-benzyl-N-[2-(dimethylamino)ethyl]-4-[(2-oxo-2,3-dihydro-1,3-benzothiazol-6-yl)amino]-5,6,7,8-tetrahydro[1]benzothieno[2,3-d]pyrimidine-7-carboxamide]
